Measured values: patent US20080319031A1, “Novel Tyrosine Derivatives” (Orchid Chemicals & Pharmaceuticals Limited, priority 2005, published 2008)

Assays:
[1] = system: TNF-α; assay: LPS induced TNF-α production in vivo; set-up: species or system Swiss Webster (SW) mice; details: one hour before LPS 10 μg/mouse ip, blood after 90 min
Method: FIG. 3. Compound 1 Inhibits LPS Induced TNF-α Production In Vivo.
Swiss Webster (SW) mice were orally treated with vehicle, dexamethasone (5 mg/kg bw) and compound 1 in example 1 (50 mg/kg bw) one hour before LPS injection (10 μg/mouse, ip) and blood was collected after 90 min and measured TNF-α levels by ELISA as described in FIG. 1.

[2] = molecular target: T1, COX-2 (Homo sapiens, UniProt P35354); assay: COX-2 inhibition: LPS induced PGE-2 in human PBMC (ELISA); assay type: cell-based
T1 construct: LPS, also induces cycloxygenase-2 (COX-2) enzyme in this system; endogenous in cells; host or cells: human peripheral blood mononuclear cells from volunteers, LPS-stimulated
T1 sequence (P35354 18-604): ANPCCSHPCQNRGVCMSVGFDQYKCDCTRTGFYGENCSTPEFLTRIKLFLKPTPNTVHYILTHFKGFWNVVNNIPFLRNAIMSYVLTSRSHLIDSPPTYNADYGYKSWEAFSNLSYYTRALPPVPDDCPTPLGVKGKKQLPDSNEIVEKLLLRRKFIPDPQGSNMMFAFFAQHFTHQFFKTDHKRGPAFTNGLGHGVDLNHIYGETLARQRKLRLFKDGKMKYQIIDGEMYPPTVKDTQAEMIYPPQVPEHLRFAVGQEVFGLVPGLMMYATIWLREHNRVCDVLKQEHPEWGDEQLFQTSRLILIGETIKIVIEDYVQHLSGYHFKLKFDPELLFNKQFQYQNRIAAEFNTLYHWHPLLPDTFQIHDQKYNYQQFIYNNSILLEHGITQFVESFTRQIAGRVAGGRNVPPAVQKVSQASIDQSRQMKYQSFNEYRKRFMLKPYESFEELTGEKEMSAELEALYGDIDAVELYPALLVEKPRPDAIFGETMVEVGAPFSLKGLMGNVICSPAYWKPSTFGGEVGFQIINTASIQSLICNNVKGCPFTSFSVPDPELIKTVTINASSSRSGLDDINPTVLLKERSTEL
Method: (§1) The inflammatory stimulus, LPS, also induces cycloxygenase-2 (COX-2) enzyme in this system and as a result prostaglandin E 2 (PGE-2) is produced. Human PBMC cells were cultured and incubated with compound in example 1 at different concentrations. Cells (1×10^6/mL) were challenged with lipopolysaccharides (LPS) at a concentration of (100 ng/mL) for 20 hours. Inhibition of COX-2 was determined by the measurement of PGE-2 levels in the supernatant by ELISA (Cayman Chemicals). For the determination of PGE-2 levels, supernatants were incubated in the ELISA plate and detected by calorimetric reaction. […] The endogenous form, COX-1 is only activated when there is a physiological stimulus and goes through the same pathway for the production of PGE-2 levels. Human monocytic U-937 (2.5×10^5/mL) cells were charged with arachidonic acid to activate the COX-1 pathway. It produced PGE-2 following these kind of physiological induction. To assay the COX-1 activity, cells were preincubated with the compound for 15 min (indomethacin was kept as positive control) and then they were challenged with 10 μM arachidonic acid for next 20 min. Supernatants were harvested and measured for PGE-2 as marker of COX-1 activity.

[3] = system: IL-1β; assay: IL-1β inhibition in LPS-challenged human PBMC (ELISA); assay type: cell-based; details: hPBMC 1×10^6/mL, LPS 100 ng/mL for 20 hours, different concentrations
Method: (§2) FIG. 1. TNF-α, IL-6 and IL-1β inhibition in human peripheral blood monocytic cells (hPBMC).
(§3) Human PBMC cells were cultured and incubated with compound 1 in example 1 at different concentrations. Cells (1×10^6/mL) were challenged with lipopolysaccharides (LPS) at a concentration of (100 ng/mL) for 20 hours. Cell supernatant was analyzed for the presence of TNF-α, IL-1β and IL-6 cytokines by antibody directed enzyme-linked immunoassay.

[4] = system: human peripheral blood mononuclear cells; assay: Cell viability of human PBMC incubated with compound; assay type: cell-based; details: hPBMC, highest concentration of the compound
[5] = molecular target: T2, COX-1 (Homo sapiens, UniProt P23219); assay: COX-1 activity: arachidonic acid induced PGE-2 in U-937 cells; assay type: cell-based; details: 10 μM compound, 10 μM arachidonic acid 20 min
T2 construct: endogenous in cells; host or cells: U-937 human monocytic cells
T2 sequence (P23219 24-599): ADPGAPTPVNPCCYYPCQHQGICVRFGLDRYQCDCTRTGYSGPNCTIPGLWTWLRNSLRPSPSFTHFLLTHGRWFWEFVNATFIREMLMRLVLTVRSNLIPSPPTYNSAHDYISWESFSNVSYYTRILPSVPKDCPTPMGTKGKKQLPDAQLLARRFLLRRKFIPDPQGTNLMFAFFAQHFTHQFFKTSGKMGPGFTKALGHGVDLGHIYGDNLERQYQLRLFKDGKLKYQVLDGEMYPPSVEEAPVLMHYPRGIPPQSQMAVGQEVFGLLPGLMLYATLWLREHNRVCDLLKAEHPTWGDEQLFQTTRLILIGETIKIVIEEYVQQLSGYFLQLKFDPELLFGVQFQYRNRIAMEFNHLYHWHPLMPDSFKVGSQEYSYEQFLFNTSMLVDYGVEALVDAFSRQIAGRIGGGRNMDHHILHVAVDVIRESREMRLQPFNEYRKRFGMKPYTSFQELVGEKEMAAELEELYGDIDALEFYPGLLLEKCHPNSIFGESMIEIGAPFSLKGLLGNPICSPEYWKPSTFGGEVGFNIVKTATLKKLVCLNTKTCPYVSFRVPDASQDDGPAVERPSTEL
Method: as §1

[6] = system: TNF-α; assay: TNF-α inhibition in LPS-challenged human PBMC (ELISA); assay type: cell-based; details: hPBMC 1×10^6/mL, LPS 100 ng/mL for 20 hours, different concentrations
Method: as §2, §3

[7] = system: IL-6; assay: IL-6 inhibition in LPS-challenged human PBMC (ELISA); assay type: cell-based; details: hPBMC 1×10^6/mL, LPS 100 ng/mL for 20 hours, different concentrations
Method: as §2, §3

[8] = system: SJL/J mice; assay: Experimental allergic encephalomyelitis (EAE) model of multiple sclerosis; assay type: in vivo; details: EAE induced by spinal chord homogenate in SJL/J mice
Method: Multiple Sclerosis (MS) is an autoimmune disease and is regulated by cytokine levels. In order to test the effect of compound 1 in example 1 in MS model, experimental allergic encepahalomyalitis (EAE) was induced in SJL/J mice. EAE is an autoimmune inflammatory disease of the central nervous system (CNS). […] EAE was induced by injecting spinal chord homogenate and the animals were treated with example compounds. The severity of EAE was established by clinical scores of paralysis.

[9] = system: DU-145; assay: Prostate cancer cell growth (MTS viability); assay type: cell-based; details: DU-145, six consecutive days, MTS every 48 hrs
Method: DU-145 is a prostate cancer cell and they were grown in 96 well plates at 1000 cells/well. The cells were pretreated with either compound 11 in example 11 and 8 in example 8 or DMSO for six consecutive days. Every 48 hrs they were stained with MTS dye and viability was checked accordingly.

[10] = system: MCF-7; assay: Breast cancer cell growth (MTS viability); assay type: cell-based; details: for inhibition of breast cancer cell growth: MCF-7, six consecutive days, MTS every 48 hrs
Method: MCF-7 is a breast cancer cells and they were grown in 96 well plates at 1000 cells/well. The cells were pretreated with either compound 11 in example 11 and 8 in example 8 or DMSO for six consecutive days. Every 48 hrs they were stained with MTS dye and viability was checked accordingly.

[11] = system: Diet induced obese mice; assay: Body weight in diet induced obesity mouse model; assay type: in vivo, C57BL/6J male mouse; details: 60% Kcal high fat diet, 50 mg/kg body weight, compared to vehicle
Method: FIG. 7. Effect of Compound 20 in Example 20 on Diet Induced Obesity Mouse Models. C57BL/6J male mouse were fed with 60% Kcal high fat diet (D12492, Research Diet) ad libitum 15 days prior to the beginning of the treatment. Diet induced obese mice were treated with a dose of 50 mg/kg body weight compound 20 in example 20 and their bodyweight was monitored on every third day.

[12] = system: Diet induced obese mice; assay: OGTT and serum insulin in diet induced obesity model; assay type: in vivo, C57BL/6J male mouse; details: day 60 of high fat feeding
Method: C57BL/6J male mouse were fed with 60% Kcal high fat diet (D12492, Research Diet) ad libitum 15 days prior to the beginning of the treatment. Diet induced obese mice were treated with a dose of 50 mg/kg body weight compound 20 in example 20 and their bodyweight was monitored on every third day. […] FIG. 8. Oral Glucose Tolerance Test (OGTT) in Diet Induced Obesity Model for Compound 20 in Example 20. […] To see the effect of compound 20 in example 20, on day 60 an OGTT study was carried to observe the improvement of glucose tolerance upon the treatment of compound 20 in example 20.

[13] = system: C57BL/6J male ob/ob diabetic mice; assay: Blood glucose in ob/ob mice; assay type: in vivo; details: 50 mg/kg body weight oral in water, within six days of treatment
Method: FIG. 6. Lowering of Blood Glucose in ob/ob Mice by Compound 20 in Example 20. Seven weeks old C57BL/6J male ob/ob (obese, insulin resistant spontaneous model of type-II diabetes) diabetic mice were orally treated with compound 20 in example 20, at a dose of 50 mg/kg body weight dissolved in water and blood glucose (FIG. 6) was monitored by Accuchek glucometer.

[14] = system: 3T3-L1 fibroblasts; assay: Adipogenesis in 3T3-L1 fibroblasts (Oil-red-O staining); assay type: cell-based
Method: FIG. 9. Compound 20 in Example 20 is Not Adipogenic.
All known PPARγ agonists induce differentiation in fibroblast cells. The adipogenic potential of these compounds are correlated with their affinity to this receptor. To check quickly the affinity of compound 20 in example 20 to this receptors, 3T3-L1 fibroblasts were treated with either DMSO control or rosiglitazone as positive control or these two compounds for several days at different concentrations. On day 13th, the differentiated adipocytes were stained with Oil-red-O (Sigma) and washed thoroughly to remove unbound stain and visualized under Olympus microscope.

[15] = system: db/db (spontaneous model) diabetic mice; assay: Blood glucose and body weight in db/db obese diabetic mice; assay type: in vivo; details: 50 mg/kg body weight oral in water
Method: FIG. 5. […] Seven weeks old male db/db (spontaneous model) diabetic mice were orally treated with compound 20 in example 20 at a dose of 50 mg/kg body weight in water and blood glucose was monitored by Accuchek glucometer.

[16] = system: HCT-116; assay: Colon cancer cell growth (MTS viability); assay type: cell-based, human; details: 30 μM, 48 hrs
Method: FIG. 10. […] HCT-116 is a human colon cancer cell line and they were grown in 96 well plates with seeding concentration of […] cells/mL.

COC(=O)C(N)Cc1ccc(Oc2ccc(C=C3C(=O)Nc4ccccc43)cc2)cc1.Cl (stereo not drawn) [Compound 1, Methyl-2-amino-3-(4-{4-[(2-oxo-1,2-dihydro-3H-indol-3-ylidene)methyl]phenoxy}phenyl) propanoate hydrochloride]
reduction of TNF levels compared to control group ([1]; 50 mg/kg bw oral): 25% | inhibition of LPS induced PGE-2 production ([2]; 10 μM compound, hPBMC): completely inhibited LPS induced PGE-2 production | selectivity on COX-2 over COX-1 activity ([2]; LPS induced vs arachidonic acid induced PGE-2): Selectively Inhibits COX-2 Than COX-1 Enzyme | inhibition of LPS induced COX-2 activity (PGE-2 levels) ([2]; hPBMC, LPS 100 ng/mL for 20 hours, different concentrations): dose dependently inhibited LPS induced COX-2 activity | inhibition of IL-1β production [3]: inhibit the production of three major pro-inflammatory cytokines in a dose dependent manner | change in cell viability [4]: No significant change in cell viability | effect on arachidonic acid induced PGE-2 levels (COX-1 activity) [5]: no effect on arachidonic acid induced PGE-2 levels | inhibition of TNF-α production [6]: inhibit the production of three major pro-inflammatory cytokines in a dose dependent manner | inhibition of IL-6 production [7]: inhibit the production of three major pro-inflammatory cytokines in a dose dependent manner | severity of EAE (clinical scores of paralysis) [8]: complete prevention of EAE

COC(=O)C(N)Cc1ccc(Oc2ccc(C=C3C(=O)Nc4ccccc43)c(C(F)(F)F)c2)cc1.Cl (stereo not drawn) [Compound 8, Methyl-2-amino-3-(4-{3-trifluoromethyl-4-[(2-oxo-1,2-dihydro-3H-indol-3-ylidene)methyl]phenoxy}phenyl) propanoate hydrochloride]
inhibition of prostate cancer cell growth [9]: selectively kills breast cancer cells | dose dependence of breast cancer cell growth inhibition ([10]; MCF-7, doses from 1-50 μM): worked equally well | inhibition of breast cancer cell growth [10]: very strong in inhibiting the breast cancer cell growth

COC(=O)C(N)Cc1ccc(Oc2ccc(CC3C(=O)Nc4ccccc43)cc2C(F)(F)F)cc1.Cl (stereo not drawn) [Compound 11, Methyl-2-amino-3-(4-{2-trifluoromethyl-4-[(2-oxo-2,3-dihydro-1H-indol-3-yl)methyl]phenoxy}phenyl) propanoate hydrochloride]
inhibition of prostate cancer cell growth [9]: very similar in both breast and prostate cancer cells | inhibition of breast cancer cell growth [10]: Inhibits Breast Cancer Cell Growth

CN(C)C(=O)[C@@H](N)Cc1ccc(Oc2ccc(/C=C3/C(=O)Nc4ccccc43)cc2)cc1.Cl [Compound 20, 2-amino-N,N-dimethyl-3-{4-[4-(2-oxo-1,2-dihydroindol-3-ylidenemethyl)-phenoxy]-phenyl}-propionamide hydrochloric acid]
body weight gain [11]: less body weight gain compared to vehicle treated animals | decrease of serum insulin level [12]: 70% | blood glucose [13]: strong glucose lowering activity | adipogenesis (differentiation of fibroblasts) ([14]; 3T3-L1, different concentrations, stained on day 13): remained unchanged | affinity to PPARγ receptor (indirect proof from adipogenesis) ([14]; inferred from 3T3-L1 adipogenesis): no affinity to PPARγ receptor | blood glucose [15]: Reduces Blood Glucose | body weight ([15]; compared to vehicle): lowering of body weight compared to vehicle

Cl.NC(=O)[C@@H](N)Cc1ccc(Oc2ccc(/C=C3/C(=O)Nc4ccccc43)cc2)cc1 [Compound 21, 2-amino-3-{4-[4-(2-oxo-1,2-dihydroindol-3-ylidenemethyl)-phenoxy]-phenyl}-propionamide hydrochloric acid]
inhibition of colon cancer cell growth [16]: completely inhibited colon cancer cell growth

C[C@@H]1C[C@H]2[C@@H]3CCC4=CC(=O)C=C[C@]4(C)[C@@]3(F)[C@@H](O)C[C@]2(C)[C@@]1(O)C(=O)CO [dexamethasone, reference compound]
inhibition of TNF levels ([1]; 5 mg/kg body weight oral): 95%
